In PubChem BioAssay (NCI):
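Compound exposure: 48 hours, 5 concentrations, 96-well plates. Definition used: TGI = concentration required for complete inhibition of growth.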

Legend:
Assay in all cases: growth of human tumour cells (NCI), 48 h
786-0 renal = tested on: 786-0 renal
A498 renal = tested on: A498 renal
A549 NSCLC = tested on: A549 NSCLC
ACHN renal = tested on: ACHN renal
CAKI-1 renal = tested on: CAKI-1 renal
CCRF-CEM leukemia = tested on: CCRF-CEM leukemia
COLO 205 colon = tested on: COLO 205 colon
DLD-1 colon = tested on: DLD-1 colon
DMS 114 small cell lung = tested on: DMS 114 small cell lung
DMS 273 small cell lung = tested on: DMS 273 small cell lung
EKVX NSCLC = tested on: EKVX NSCLC
HCC-2998 colon = tested on: HCC-2998 colon
HCT-116 colon = tested on: HCT-116 colon
HCT-15 colon = tested on: HCT-15 colon
HOP-18 NSCLC = tested on: HOP-18 NSCLC
HOP-62 NSCLC = tested on: HOP-62 NSCLC
HOP-92 NSCLC = tested on: HOP-92 NSCLC
HT29 colon = tested on: HT29 colon
IGROV1 ovarian = tested on: IGROV1 ovarian
K-562 leukemia = tested on: K-562 leukemia
KM12 colon = tested on: KM12 colon
KM20L2 colon = tested on: KM20L2 colon
LOX IMVI melanoma = tested on: LOX IMVI melanoma
LXFL 529 NSCLC = tested on: LXFL 529 NSCLC
M14 melanoma = tested on: M14 melanoma
M19-MEL melanoma = tested on: M19-MEL melanoma
MALME-3M melanoma = tested on: MALME-3M melanoma
MOLT-4 leukemia = tested on: MOLT-4 leukemia
NCI-H226 lung = tested on: NCI-H226 lung
NCI-H23 lung = tested on: NCI-H23 lung
NCI-H460 lung = tested on: NCI-H460 lung
NCI-H522 lung = tested on: NCI-H522 lung
OVCAR-3 ovarian = tested on: OVCAR-3 ovarian
OVCAR-4 ovarian = tested on: OVCAR-4 ovarian
OVCAR-5 ovarian = tested on: OVCAR-5 ovarian
OVCAR-8 ovarian = tested on: OVCAR-8 ovarian
RPMI-8226 leukemia = tested on: RPMI-8226 leukemia
RXF-631 renal = tested on: RXF-631 renal
SF-268 CNS = tested on: SF-268 CNS
SF-539 CNS = tested on: SF-539 CNS
SK-MEL-2 melanoma = tested on: SK-MEL-2 melanoma
SK-MEL-28 melanoma = tested on: SK-MEL-28 melanoma
SK-MEL-5 melanoma = tested on: SK-MEL-5 melanoma
SK-OV-3 ovarian = tested on: SK-OV-3 ovarian
SN12C renal = tested on: SN12C renal
SNB-19 CNS = tested on: SNB-19 CNS
SNB-75 CNS = tested on: SNB-75 CNS
SNB-78 CNS = tested on: SNB-78 CNS
SW-620 colon = tested on: SW-620 colon
TK-10 renal = tested on: TK-10 renal
U251 CNS = tested on: U251 CNS
UACC-257 melanoma = tested on: UACC-257 melanoma
UACC-62 melanoma = tested on: UACC-62 melanoma
UO-31 renal = tested on: UO-31 renal
XF 498 CNS = tested on: XF 498 CNS
HL-60(TB) leukemia = tested on: HL-60(TB) leukemia
RXF 393 renal = tested on: RXF 393 renal
SF-295 CNS = tested on: SF-295 CNS
SR leukemia = tested on: SR leukemia

Measured: TGI

Nc1ccc(N)c2c1C(=O)c1ccccc1C2=O
72.9 µM: HCC-2998 colon
94 µM: TK-10 renal
> 100 µM: 786-0 renal | A498 renal | A549 NSCLC | ACHN renal | CAKI-1 renal | CCRF-CEM leukemia | COLO 205 colon | DLD-1 colon | DMS 114 small cell lung | DMS 273 small cell lung | EKVX NSCLC | HCT-116 colon | HCT-15 colon | HOP-18 NSCLC | HOP-62 NSCLC | HOP-92 NSCLC | HT29 colon | IGROV1 ovarian | K-562 leukemia | KM12 colon | KM20L2 colon | LOX IMVI melanoma | LXFL 529 NSCLC | M14 melanoma | M19-MEL melanoma | MALME-3M melanoma | MOLT-4 leukemia | NCI-H226 lung | NCI-H23 lung | NCI-H460 lung | NCI-H522 lung | OVCAR-3 ovarian | OVCAR-4 ovarian | OVCAR-5 ovarian | OVCAR-8 ovarian | RPMI-8226 leukemia | RXF-631 renal | SF-268 CNS | SF-539 CNS | SK-MEL-2 melanoma | SK-MEL-28 melanoma | SK-MEL-5 melanoma | SK-OV-3 ovarian | SN12C renal | SNB-19 CNS | SNB-75 CNS | SNB-78 CNS | SW-620 colon | U251 CNS | UACC-257 melanoma | UACC-62 melanoma | UO-31 renal | XF 498 CNS

CCc1ccccc1N1C(=O)C(=O)C(c2nc3ccccc3s2)C(=O)C1=O
> 100 µM: 786-0 renal | A549 NSCLC | ACHN renal | CAKI-1 renal | CCRF-CEM leukemia | DLD-1 colon | DMS 114 small cell lung | EKVX NSCLC | HCC-2998 colon | HCT-116 colon | HCT-15 colon | HL-60(TB) leukemia | HOP-18 NSCLC | HOP-62 NSCLC | HOP-92 NSCLC | HT29 colon | IGROV1 ovarian | K-562 leukemia | KM12 colon | KM20L2 colon | LOX IMVI melanoma | LXFL 529 NSCLC | M14 melanoma | M19-MEL melanoma | MALME-3M melanoma | MOLT-4 leukemia | NCI-H226 lung | NCI-H23 lung | NCI-H460 lung | NCI-H522 lung | OVCAR-3 ovarian | OVCAR-4 ovarian | OVCAR-5 ovarian | OVCAR-8 ovarian | RPMI-8226 leukemia | RXF 393 renal | RXF-631 renal | SF-268 CNS | SF-295 CNS | SF-539 CNS | SK-MEL-2 melanoma | SK-MEL-28 melanoma | SK-MEL-5 melanoma | SK-OV-3 ovarian | SN12C renal | SNB-19 CNS | SNB-78 CNS | SR leukemia | SW-620 colon | TK-10 renal | U251 CNS | UACC-257 melanoma | UACC-62 melanoma | UO-31 renal | XF 498 CNS

COC(=O)CCC(NC(=S)N/N=C(\C)c1ccco1)C(=O)OC (centres undefined)
> 100 µM: 786-0 renal | A498 renal | A549 NSCLC | ACHN renal | CCRF-CEM leukemia | COLO 205 colon | DLD-1 colon | DMS 114 small cell lung | DMS 273 small cell lung | EKVX NSCLC | HCC-2998 colon | HCT-116 colon | HCT-15 colon | HL-60(TB) leukemia | HOP-18 NSCLC | HOP-62 NSCLC | HT29 colon | IGROV1 ovarian | K-562 leukemia | KM12 colon | KM20L2 colon | LOX IMVI melanoma | LXFL 529 NSCLC | M14 melanoma | M19-MEL melanoma | MALME-3M melanoma | NCI-H226 lung | NCI-H23 lung | NCI-H460 lung | NCI-H522 lung | OVCAR-3 ovarian | OVCAR-4 ovarian | OVCAR-5 ovarian | OVCAR-8 ovarian | RXF 393 renal | RXF-631 renal | SF-268 CNS | SF-295 CNS | SF-539 CNS | SK-MEL-2 melanoma | SK-MEL-28 melanoma | SK-MEL-5 melanoma | SK-OV-3 ovarian | SN12C renal | SNB-19 CNS | SNB-75 CNS | SNB-78 CNS | SW-620 colon | TK-10 renal | U251 CNS | UACC-257 melanoma | UACC-62 melanoma | UO-31 renal | XF 498 CNS
